Patent publication US20090136470A1, “REGULATORY T CELLS AND METHODS OF MAKING AND USING SAME” (priority 2007, published 2009)
Read-outs that look alike come from different tables or passages of the source.

Assays:
[1] = system: CD4^+T cells from small intestine lamina propria and spleen; test: Oral Listeria monocytogenes infection (and naïve mice) treated with RA or LE540: IL-17^+ and Foxp3^+ CD4 T cells; type: in vivo, mouse
Text: Listeria monocytogenes (strain WT LMOVA) was used. Mice were orally infected (gavage) with 5×10^8 CFU of L. monocytogenes. Mice received i.p. injections of vehicle, RA or LE540 on the same day and 2 days after infection. Mice were sacrificed 5 days post-infection for analysis.
Every second day, in a interval of two weeks, naïve mice received gavage of either vehicle, RA or LE540.
Liver lymphocytes were isolated using 37.5% isotonic Percoll (GE Healthcare, USA), as previously described [Y. Kinjo et al, Nat Immunol 7, 978 (2006)]. Intestinal lymphocytes were isolated and prepared as previously described [Aranda et al., J Immunol 158, 3464 (1997)]. Briefly, small and large intestines were removed and placed in chilled HBSS media containing 5% FCS. The intestines were carefully cleaned from the mesentery and flushed of fecal content. Intestines were opened longitudinally and then cut into 1 cm pieces. The intestinal tissue was transferred to a 250-ml Erlenmeyer flasks containing 25 ml of preheated HBSS complemented with 2% FCS and 1 mM DTT (Sigma, USA) and shaken at 200 rpm for 40 min at 37° C. The tissue suspension was passed through a stainless steel sieve into 50-ml conical tubes and the cells were pelleted by centrifugation at 1200 rpm for 10 min at 4° C. The cell pellet was resuspended in complete HBSS, layered over a discontinuous 40/70% Percoll gradient, and centrifuged at 2000 rpm for 30 min. Cells from the 40/70% interface were collected, washed and resuspended in complete RPMI media. These purified cells constituted the intraepithelial lymphocyte (IEL) population. To isolate the lamina propria lymphocytes (LPL), the remaining intestinal tissue in the stainless steel sieve was minced and transferred to conical tubes. The minced pieces were resuspended in 20 ml of complete RPMI containing 1 mg/ml of collagenase (Sigma, USA) and shaken at 200 rpm for 40 min at 37° C. The tissue suspension was collected and passed through a 70 μm cell strainer and the cells were pelleted by centrifugation at 1200 rpm. The cells were then resuspended and layered onto a 40/70% Percoll gradient, centrifugated and processed as described above for the IEL preparation.
(§1) To block non-specific staining, the 2.4G2 anti-CD16/32 antibody was added. […] For intracellular cytokine staining, cells obtained from in vitro cultures or isolated IELs were incubated for 4-5 hours with 50 ng/ml PMA, 750 ng/ml Ionomycin (both Sigma, USA) and 10 μg/ml Brefeldin A (Invitrogen, USA) in a tissue culture incubator at 37° C.
For Foxp3 staining, no stimulation with PMA/Ionomycin was performed, with the exceptions of FIGS. 8B and 9A. In these cases, the time of incubation with PMA/Ion was reduced to 3.5 hours. Intracellular Foxp3 staining was performed as per the eBioscience's Foxp3-staining kit protocol.

[2] = system: CD4^+CD25^− spleen T cells; test: Th-17 differentiation of CD4 T cells stimulated with dendritic cells or spleen APCs plus TGF-β and IL-6 (intracellular IL-17 staining, IL-17 ELISA); type: cell-based, mouse
Procedure: (§2) For CD4^+CD25^− T cell isolation, spleens were removed, teased into cell-single suspensions and filtered through a 70 μm cell strainer (Fisher Scientific, USA). CD4^+CD25^−T cells were isolated by negative selection after incubation with a mix of specific biotin-conjugated mAbs (anti-CD8, CD11b, CD11ε, CD25, CD45R (B220), NK1.1, and TER119) at 1/200 dilution, and anti-biotin magnetic microbeads (25-40 μl per spleen) (Miltenyi Biotec, USA).
(§3) For dendritic cells isolation, spleen and MLN were chopped and digested by collagenase type D (Roche, USA) for 30 min at room temperature. Digested tissues were treated with 5 mM of EDTA for additional 5 min and mashed through a 70 μm cell strainer. Subsequently, CD11c^+ cells were enriched by positive selection using anti-CD11c microbeads according to the manufacturer's protocol (Miltenyi Biotec, USA). Enriched populations were stained with CD45-APC, CD 11c-PE, I-A^b-FITC and TCR β and sorted for TCRβ^−CD45^+CD11c^+I-Ab^+ by flow cytometry using a FACS-DIVA cell sorter (USA).
(§4) The culture medium used for dendritic cell-T cell cultures was Iscove's modified Dulbecco medium (IMDM) (Gibco, USA) supplemented with 10% heat-inactivated FCS, 2 mM L-glutamine, 100 U/ml penicillin, 100 μg/ml streptomycin, and 5 mM β-mercaptoethanol (all Sigma, USA). […] For dendritic cell-T cell cultures, 2×10^4 dendritic cells and 1×10^5 T cells were cultured in a volume of 200 μl (96-well plates). For irradiated APC-T cell cultures, 5×10^5 APCs and 1×10^5 T cells were cultured in a volume of 200 μl in 96-well plates (2×10^6 APCs and 0.5×10^6 T cells per well in 48-well plates). […] For the study shown in FIG. 4A, after sorting of naive CD4^+ cells (CD25^−CD44^lowCD62L^+), cells were washed twice in PBS+0.1% BSA, counted and labeled with 2 μM of CFSE (Carboxyfluorescein diacetate, succinimidyl ester) (Molecular Probes, USA) at a concentration of 5−10×10^6 cells per ml in PBS-0.1% BSA.
To block non-specific staining, the 2.4G2 anti-CD16/32 antibody was added.

[3] = system: CD4^+CD25^−T cells; test: TGF-β-dependent Foxp3 induction (Treg differentiation) in CD4 T cells with dendritic cells or APCs; type: cell-based, mouse; conditions: OT-II CD4 cells, OVAp, TGF-β1; LE135 1 μM, RA 100 nM
Procedure: as §2, §3, §4
For Foxp3 staining, no stimulation with PMA/Ionomycin was performed, with the exceptions of FIGS. 8B and 9A. […]

[4] = system: CD4 cells cultured with MLN DCs (MDC) or splenic DCs (SDC); test: Retinal (RAL): TGF-β mediated Foxp3 induction (Treg differentiation) in DC/T cell co-cultures; type: cell-based
[5] = system: CD4 cells cultured with either MLN DCs (MDC) or splenic DCs (SDC); test: Retinal (RAL): TH-17 differentiation and IL-17 production in DC/T cell co-cultures; type: cell-based
[6] = system: retinoic-acid orphan receptor RORg-t; test: Retinal (RAL): RORg-t in APC-free system; type: cell-based
[7] = system: RAR; conditions: cited from earlier work
[8] = system: RXR; conditions: cited from earlier work
[9] = target: T1, PPAR-γ (Homo sapiens, UniProt P37231); conditions: cited from earlier work
T1 sequence (P37231 1-505): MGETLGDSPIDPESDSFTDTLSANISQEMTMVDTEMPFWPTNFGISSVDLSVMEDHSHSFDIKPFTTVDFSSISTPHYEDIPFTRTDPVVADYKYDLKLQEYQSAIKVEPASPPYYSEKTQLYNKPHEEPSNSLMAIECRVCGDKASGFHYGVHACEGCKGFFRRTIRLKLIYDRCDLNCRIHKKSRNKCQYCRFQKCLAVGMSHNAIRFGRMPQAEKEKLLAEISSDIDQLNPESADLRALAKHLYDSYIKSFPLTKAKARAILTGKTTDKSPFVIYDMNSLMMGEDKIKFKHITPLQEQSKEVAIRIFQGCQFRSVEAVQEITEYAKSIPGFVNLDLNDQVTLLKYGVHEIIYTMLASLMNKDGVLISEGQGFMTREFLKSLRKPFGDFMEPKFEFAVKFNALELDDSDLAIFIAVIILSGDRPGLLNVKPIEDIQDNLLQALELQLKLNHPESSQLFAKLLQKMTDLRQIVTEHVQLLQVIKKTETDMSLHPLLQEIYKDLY

[10] = system: CD4^+CD25^−T cells; test: CTLA-4, CD103, CCR9 and CD25 staining of CD4 T cells stimulated with spleen APCs plus TGF-β1 and/or RA; type: cell-based, mouse; conditions: TGF-β1 added to RA
Procedure: as §2
APCs were isolated from spleen of C57BL/6 mice by negative selection using CD90.2 (Thy1.2) magnetic microbeads to deplete T cells (Miltenyi Biotec).
as §4, §1

Compound: CN1c2cc3c(cc2N=C(c2ccc(C(=O)O)cc2)c2ccc4ccccc4c21)C(C)(C)CCC3(C)C [LE540]
- Th-17 mucosal T cells (IL-17 staining of CD4^+T cells, small intestine lamina propria) ([1]; 5 days after oral L. monocytogenes infection, i.p. days 0 and 2, RA 300 μg/mouse, LE540 100 μg/mouse): no apparent difference compared to the controls
- differentiation / number of mucosal Foxp3^+Treg cells (small intestine lamina propria) ([1]; Lm challenged mice, 5 days after oral infection): significantly reduce
- spleen Foxp3^+CD4 cells ([1]; Lm infected mice (2 i.p. injections) and naïve mice (2-week gavage)): No effect

Compound: CN1c2cc3c(cc2N=C(c2ccc(C(=O)O)cc2)c2ccccc21)C(C)(C)CCC3(C)C [LE135]
- relative inefficiency of MLN dendritic cells to mediate Th-17 differentiation ([2]; RAR antagonist included during activation under Th-17 conditions, 1 μM): reversed
- TGF-β-dependent Foxp3 induction by MLN dendritic cells [3]: reduced
- effect of RAR antagonist on RAL-increased Foxp3 induction ([4]; LE135 added with RAL): reversed Foxp3 induction

Compound: CC1=C(/C=C/C(C)=C\C=C\C(C)=C\C(=O)O)C(C)(C)CCC1 [9-cis RA, 9-cis retinoic acid]
- Th-17 differentiation by spleen dendritic cells ([2]; added to cultures with TGF-β and IL-6, 100 nM): also inhibited the Th-17 differentiation by spleen dendritic cells

Compound: CC1=C(/C=C/C(C)=C/C=C/C(C)=C/C=O)C(C)(C)CCC1 [RAL, retinal]
- TH-17 differentiation [5]: able to inhibit TH-17 differentiation
- IL-17 production from CD4 cells ([5]; cultured with either MLN DCs (MDC) or splenic DCs (SDC)): suppresses IL-17 production
- TH-17 differentiation ([5]; listed as retinal): suppressor of TH-17 differentiation
- TGF-β mediated Foxp3 induction / Treg differentiation [4]: enhance TGF-β mediated Foxp3 induction
- increased induction of Foxp3, MDC versus SDC cultures ([4]; DC/T cell co-cultures): observed mainly in MDC cultures
- TGF-β mediated Foxp3 induction / Treg differentiation ([4]; listed as retinal): enhances Treg differentiation
- RORg-t [6]: inhibited
- binding to RAR [7]: does not bind
- binding to RXR [8]: shown to bind
- binding to PPAR-γ [9]: shown to bind

Compound: CC(C)=CCCC(C)=CC=O [citral]
- effect of RALDH inhibition on RAL effects on TH-17 differentiation ([5]; citral added with RAL): does not reverse RAL effects

Compound: TGF-β: cytokine, transforming growth factor-beta, exogenous, 5 ng/ml (R&D Systems)
- RA-induced CCR9 expression [10]: partially antagonized
